# Results: patent US11319305B2, “Pyrimidine sulfamide derivative and preparation method and medical application thereof” (SHIJIAZHUANG SAGACITY NEW DRUG DEVELOPMENT CO., LTD., priority 2017, dated 2022)
# What was measured:
# human ETB receptor = target: T1, human ETB receptor (Homo sapiens, UniProt P24530); experiment: In vitro antagonistic effect against human ETB receptor, Ca2+ signal in transfected CHO cells; type: cell-based; conditions: response to 0.3 nM endothelin-1
# T1 construct: host or cells: CHO cells
# T1 sequence (P24530 27-442): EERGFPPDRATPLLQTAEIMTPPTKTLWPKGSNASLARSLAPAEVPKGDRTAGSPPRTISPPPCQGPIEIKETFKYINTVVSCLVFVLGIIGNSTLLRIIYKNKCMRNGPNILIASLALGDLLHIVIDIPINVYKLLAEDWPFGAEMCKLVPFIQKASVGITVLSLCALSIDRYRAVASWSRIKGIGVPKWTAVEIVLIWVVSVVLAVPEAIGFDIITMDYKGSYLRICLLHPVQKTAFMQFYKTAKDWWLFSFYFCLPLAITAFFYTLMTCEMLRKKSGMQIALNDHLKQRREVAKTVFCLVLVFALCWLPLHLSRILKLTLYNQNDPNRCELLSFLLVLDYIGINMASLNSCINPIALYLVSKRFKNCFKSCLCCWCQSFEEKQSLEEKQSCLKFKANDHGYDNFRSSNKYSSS
# Description: Antagonist activity of the compound against human ETB receptors expressed in transfected CHO cells was evaluated by measuring the effect of the compound on the changes in the cytoplasmic Ca^2+ ion signal induced by human ETB receptor agonists. The functional activity of the ETB receptor antagonistic effect was tested in Eurofins-Cerep SA according to current standard procedures.
# 1. Cells were suspended in DMEM buffer (Invitrogen) and then distributed in 384-well plate (100 μL/well) at a density of 3×10^4 cells/well;
# 2. Probenecid in HBSS buffer (Invitrogen) supplemented with 20 mM Hepes (Invitrogen) (pH 7.4) was mixed with fluorescent probe (Fluo4 NW, Invitrogen), the mixture was added to each wells, then balanced with cells at 37° C. for 60 minutes, and then balanced with cells at 22° C. for 15 minutes;
# 3. The test plate was placed in a microplate reader (CellLux, PerkinElmer), a DMSO solution or HBSS buffer with an appropriate concentration of the test compound and the positive control was added, and 0.3 nM endothelin-1 or HBSS buffer (base control) was added after 5 minutes, and then the change in fluorescence intensity proportional to the concentration of Ca^2+ ions of […] was measured;
# 4. Results were shown as the percent inhibition of control response to 0.3 nM endothelin-1;
# 5. Standard positive control was BQ-788, several concentrations were tested in each experiments. The data was analyzed using Prism to generate a concentration-response curve, and IC50 values of the compounds were calculated.
# CYP1A2 = target: T2, CYP1A2 (Homo sapiens, UniProt P05177); experiment: Human liver microsomal cytochrome P450 isozyme inhibition assay, CYP1A2; type: in vitro ADME; conditions: human liver microsomes
# T2 construct: Mixed human liver microsomes (HLM) were purchased from Corning Inc; tissue Corning Inc; host or cells: pooled human liver microsomes
# T2 sequence (P05177 1-516): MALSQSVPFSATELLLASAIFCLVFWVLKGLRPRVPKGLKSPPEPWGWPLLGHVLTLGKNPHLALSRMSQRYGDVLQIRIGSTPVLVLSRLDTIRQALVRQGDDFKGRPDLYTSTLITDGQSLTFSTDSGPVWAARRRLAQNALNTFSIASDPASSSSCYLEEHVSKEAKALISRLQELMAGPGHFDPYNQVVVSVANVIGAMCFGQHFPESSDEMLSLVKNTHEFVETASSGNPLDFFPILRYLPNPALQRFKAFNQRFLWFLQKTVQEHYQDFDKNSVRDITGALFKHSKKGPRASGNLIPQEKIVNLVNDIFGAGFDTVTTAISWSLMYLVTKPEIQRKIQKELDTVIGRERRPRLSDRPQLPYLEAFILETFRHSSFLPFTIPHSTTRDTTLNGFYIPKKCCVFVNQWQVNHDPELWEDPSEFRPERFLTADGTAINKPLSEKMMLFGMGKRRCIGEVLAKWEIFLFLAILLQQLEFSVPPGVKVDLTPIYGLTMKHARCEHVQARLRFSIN
# Description: (§1) Experimental Embodiment 4: Human Liver Microsomal Cytochrome P450 Isozyme Inhibition Assay The purpose of the assay was to evaluate the inhibitory activity of the samples against human liver microsomal cytochrome P450 isozyme (CYP1A2, CYP2C9, CYP2C19, CYP2D6 and CYP3A4) using the 5-in-1 probe substrate of the CYP isozyme. Mixed human liver microsomes (HLM) were purchased from Corning Inc. (Steuben, N.Y., USA) and stored below −80° C. before use. The test compound working solution which has been diluted into serial concentrations was added to an incubation system containing human liver microsomes, probe substrates and circulating system cofactors, and a control containing solvent without the test compound was used as the enzyme activity control (100%). The concentration of the metabolite produced by the probe substrate in the sample was determined using a liquid chromatography-tandem mass spectrometry (LC-MS/MS) method. Nonlinear regression analysis was performed on the average percent activity versus concentration of subjects using SigmaPlot (V.11). The IC50 value was calculated by a three-parameter or four-parameter inverse-logarithmic equation.
# CYP2C19 = target: T3, CYP2C19 (Homo sapiens, UniProt P33261); experiment: Human liver microsomal cytochrome P450 isozyme inhibition assay, CYP2C19; type: in vitro ADME; conditions: human liver microsomes
# T3 construct: Mixed human liver microsomes (HLM) were purchased from Corning Inc; tissue Corning Inc; host or cells: pooled human liver microsomes
# Description: as §1
# CYP2D6 = target: T4, CYP2D6 (Homo sapiens, UniProt P10635); experiment: Human liver microsomal cytochrome P450 isozyme inhibition assay, CYP2D6; type: in vitro ADME; conditions: human liver microsomes
# T4 construct: Mixed human liver microsomes (HLM) were purchased from Corning Inc; tissue Corning Inc; host or cells: pooled human liver microsomes
# Description: as §1
# CYP2C9 = target: T5, CYP2C9 (Homo sapiens, UniProt P11712); experiment: Human liver microsomal cytochrome P450 isozyme inhibition assay, CYP2C9; type: in vitro ADME; conditions: human liver microsomes
# T5 construct: Mixed human liver microsomes (HLM) were purchased from Corning Inc; tissue Corning Inc; host or cells: pooled human liver microsomes
# Description: as §1
# [1] = target: T6, bile salt transport pump (BSEP) (Homo sapiens, UniProt O95342); experiment: Inhibition test on bile salt transfer pump (BSEP), taurocholic acid uptake in BSEP-Hi5-VT vesicles; type: in vitro ADME
# T6 construct: purchased Solvo Biotechnology SB-BSEP-Hi5-VT; host or cells: Hi5 insect cells (read from the product name; own knowledge)
# Description: Prepared with buffer A, 8.16 mM ATP and 4.08 μM taurocholic acid were contained in 12 mL buffer A.
# Prepared with buffer A, 8.16 mM AMP, 4.08 μM taurocholic acid 12 mL buffer A were contained in buffer A.
# A solution containing BSEP-Hi5-VT 5 μg/μL was prepared with buffer A.
# The compound was diluted to 100 mM with DMSO; then serially diluted 3-fold for an 11-point dilution; the minimum concentration was 0.169 μM.
# Positive reference Glyburide was diluted to 20 mM with DMSO; then serially diluted 2-fold for an 11-point dilution; the minimum concentration was 19.5
# 0.3 μL of a solution of the compound in DMSO or a diluted DMSO solution were transferred into corresponding wells of the compound plate using ECHO, respectively.
# 14.7 μL of ATP buffer was added to the compound and the corresponding wells of zero percent effect (ZPE), respectively.
# 14.7 μL of AMP buffer was added to the corresponding wells of 100% effect (HPE), respectively.
# The plate was shaked for 10 minutes at 25° C.
# 15 μL of BSEP-H15-VT Vesicle solution was added to all wells, respectively, and the plate was shaked for another 40 minutes at 25° C.
# 6.5 μL 0.5 M ethylenediaminetetraacetic acid (EDTA) solution was added to all wells immediately, followed by addition of 65 μL of buffer B, and the whole reaction was completed.
# 7.95 μL of liquid was transferred to the filter plate from the compound plate at the end of the reaction using an instrument.
# After placing the liquid receiving plate under the filter plate, the liquid was removed using a centrifuge and the receiving plate liquid was discarded.
# 9.90 μL of buffer B was added to the filter plate. After placing the liquid receiving plate under the filter plate, the liquid was removed using a centrifuge, and the receiving plate liquid was discarded, and filter plate was washed for three times in total.
# The filter plate was dried overnight.
# On the next day, 80 μL of methanol/water (80/20, volume ratio) solution was added to the filter plate.
# The plate was shaked for 15 minutes after the filter plate was attached to the membrane.
# A new liquid receiving plate was placed under the filter plate, and the filter plate was centrifuged for 5 minutes, and all liquids in the filter plate were filtrated into the receiving plate.
# 15 μL of internal standard solution was added to each wells in the liquid receiving plate, and the plate was sealed with a membrane.
# The content of taurocholic acid in the receiving plate was detected using LC/MS/MS.
# Several concentrations were tested in each experiments. The data were analyzed using Prism to generate a concentration-response curve, and IC50 values of the compounds were calculated.
# [2] = test system: human liver microsomal cytochrome P450 isozyme (CYP1A2, CYP2C9, CYP2C19, CYP2D6 and CYP3A4); experiment: Human liver microsomal cytochrome P450 isozyme inhibition assay, summary over the main isozymes; type: in vitro ADME
# Description: as §1
# CYP3A4 = target: T7, CYP3A4 (Homo sapiens, UniProt P08684); experiment: Human liver microsomal cytochrome P450 isozyme inhibition assay, CYP3A4; type: in vitro ADME; conditions: human liver microsomes
# T7 construct: Mixed human liver microsomes (HLM) were purchased from Corning Inc; tissue Corning Inc; host or cells: pooled human liver microsomes
# Description: as §1
# T6 sequence (O95342 whole entry): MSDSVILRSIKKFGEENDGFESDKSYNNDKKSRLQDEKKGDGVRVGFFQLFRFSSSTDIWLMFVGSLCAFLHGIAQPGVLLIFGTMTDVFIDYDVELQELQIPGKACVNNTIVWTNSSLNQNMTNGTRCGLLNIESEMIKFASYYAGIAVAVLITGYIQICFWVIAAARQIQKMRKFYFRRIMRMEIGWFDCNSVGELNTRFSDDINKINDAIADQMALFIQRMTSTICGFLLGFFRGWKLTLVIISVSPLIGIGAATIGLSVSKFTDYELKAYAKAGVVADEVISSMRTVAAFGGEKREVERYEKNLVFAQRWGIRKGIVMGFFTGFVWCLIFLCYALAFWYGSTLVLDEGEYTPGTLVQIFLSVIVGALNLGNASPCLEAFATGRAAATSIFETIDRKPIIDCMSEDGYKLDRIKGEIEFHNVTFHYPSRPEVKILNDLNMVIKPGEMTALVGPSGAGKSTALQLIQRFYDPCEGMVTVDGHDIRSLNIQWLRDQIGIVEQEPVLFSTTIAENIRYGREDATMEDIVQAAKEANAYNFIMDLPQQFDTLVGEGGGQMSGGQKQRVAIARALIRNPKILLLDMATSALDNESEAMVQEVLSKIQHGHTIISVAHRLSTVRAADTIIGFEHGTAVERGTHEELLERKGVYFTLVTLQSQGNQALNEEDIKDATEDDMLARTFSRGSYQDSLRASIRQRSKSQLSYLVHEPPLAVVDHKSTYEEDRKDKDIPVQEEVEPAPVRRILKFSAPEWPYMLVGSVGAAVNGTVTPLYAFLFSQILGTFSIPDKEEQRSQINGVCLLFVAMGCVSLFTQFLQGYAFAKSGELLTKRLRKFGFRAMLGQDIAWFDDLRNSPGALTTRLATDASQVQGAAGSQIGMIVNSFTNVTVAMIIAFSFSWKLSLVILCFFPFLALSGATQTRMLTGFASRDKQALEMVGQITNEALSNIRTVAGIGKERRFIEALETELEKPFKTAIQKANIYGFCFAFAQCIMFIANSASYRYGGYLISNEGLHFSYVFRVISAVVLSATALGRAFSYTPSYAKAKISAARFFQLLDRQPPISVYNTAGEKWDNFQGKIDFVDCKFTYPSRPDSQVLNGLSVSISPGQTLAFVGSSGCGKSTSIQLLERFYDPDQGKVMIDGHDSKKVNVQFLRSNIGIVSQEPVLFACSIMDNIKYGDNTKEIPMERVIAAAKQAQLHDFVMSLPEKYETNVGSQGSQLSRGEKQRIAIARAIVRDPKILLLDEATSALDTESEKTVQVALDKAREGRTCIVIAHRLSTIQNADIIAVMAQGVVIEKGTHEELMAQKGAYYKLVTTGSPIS
# T5 sequence (P11712 whole entry): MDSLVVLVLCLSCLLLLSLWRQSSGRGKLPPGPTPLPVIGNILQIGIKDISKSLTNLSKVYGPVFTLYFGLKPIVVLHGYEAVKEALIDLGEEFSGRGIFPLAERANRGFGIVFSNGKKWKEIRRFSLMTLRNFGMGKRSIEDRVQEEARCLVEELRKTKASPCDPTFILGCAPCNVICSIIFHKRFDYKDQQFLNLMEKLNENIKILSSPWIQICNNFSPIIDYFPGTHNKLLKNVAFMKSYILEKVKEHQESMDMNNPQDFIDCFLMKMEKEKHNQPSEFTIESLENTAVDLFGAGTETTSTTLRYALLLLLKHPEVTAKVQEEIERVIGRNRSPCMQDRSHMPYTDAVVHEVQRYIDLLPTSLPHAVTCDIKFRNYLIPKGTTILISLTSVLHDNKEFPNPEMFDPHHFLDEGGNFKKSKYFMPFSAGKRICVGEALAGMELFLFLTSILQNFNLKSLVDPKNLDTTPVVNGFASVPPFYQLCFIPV
# T3 sequence (P33261 whole entry): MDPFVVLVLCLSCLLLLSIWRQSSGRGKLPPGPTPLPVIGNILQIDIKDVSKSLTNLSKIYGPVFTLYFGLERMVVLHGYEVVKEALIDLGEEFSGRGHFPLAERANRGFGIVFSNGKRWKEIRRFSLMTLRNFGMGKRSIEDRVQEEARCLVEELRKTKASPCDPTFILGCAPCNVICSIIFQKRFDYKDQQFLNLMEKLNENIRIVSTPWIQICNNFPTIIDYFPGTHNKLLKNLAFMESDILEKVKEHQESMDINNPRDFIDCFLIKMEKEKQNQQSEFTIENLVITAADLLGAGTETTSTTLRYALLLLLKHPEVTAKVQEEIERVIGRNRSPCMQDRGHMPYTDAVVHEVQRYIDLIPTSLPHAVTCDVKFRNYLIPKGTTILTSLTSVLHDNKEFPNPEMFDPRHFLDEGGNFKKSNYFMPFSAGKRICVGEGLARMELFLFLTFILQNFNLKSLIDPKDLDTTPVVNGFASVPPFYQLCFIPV
# T7 sequence (P08684 whole entry): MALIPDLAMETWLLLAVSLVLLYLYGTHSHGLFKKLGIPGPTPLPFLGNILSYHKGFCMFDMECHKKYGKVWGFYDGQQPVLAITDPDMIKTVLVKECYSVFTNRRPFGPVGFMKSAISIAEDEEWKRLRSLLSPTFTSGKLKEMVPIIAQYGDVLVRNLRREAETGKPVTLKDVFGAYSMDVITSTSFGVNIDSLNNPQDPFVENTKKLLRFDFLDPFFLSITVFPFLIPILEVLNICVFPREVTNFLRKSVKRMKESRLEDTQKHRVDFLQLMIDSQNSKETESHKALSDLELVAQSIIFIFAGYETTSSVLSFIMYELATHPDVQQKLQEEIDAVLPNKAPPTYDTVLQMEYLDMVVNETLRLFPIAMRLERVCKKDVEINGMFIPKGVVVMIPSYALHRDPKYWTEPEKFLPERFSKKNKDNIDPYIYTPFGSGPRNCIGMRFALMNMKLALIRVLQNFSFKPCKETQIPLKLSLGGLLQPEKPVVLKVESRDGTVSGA
# T4 sequence (P10635 whole entry): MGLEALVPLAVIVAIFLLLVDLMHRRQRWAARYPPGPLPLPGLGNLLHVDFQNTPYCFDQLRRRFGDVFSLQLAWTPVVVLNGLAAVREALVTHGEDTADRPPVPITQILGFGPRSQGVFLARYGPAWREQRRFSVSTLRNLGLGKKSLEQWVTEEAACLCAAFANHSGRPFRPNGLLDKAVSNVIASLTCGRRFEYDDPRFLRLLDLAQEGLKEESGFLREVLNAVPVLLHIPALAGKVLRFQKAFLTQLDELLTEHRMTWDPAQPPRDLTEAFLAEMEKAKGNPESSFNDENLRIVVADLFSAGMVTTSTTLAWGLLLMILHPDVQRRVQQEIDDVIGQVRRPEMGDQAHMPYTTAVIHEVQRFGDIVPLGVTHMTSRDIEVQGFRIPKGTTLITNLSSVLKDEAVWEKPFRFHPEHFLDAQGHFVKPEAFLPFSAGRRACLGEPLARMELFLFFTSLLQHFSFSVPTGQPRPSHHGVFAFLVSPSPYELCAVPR
smiles,measurement,setting,value
NS(=O)(=O)Nc1ncnc(OCCOc2ncc(Br)cn2)c1-c1ccc2c(c1)OCO2 [WX001],IC50,human ETB receptor,85 µM
COCCNS(=O)(=O)Nc1ncnc(OCCOc2ncc(Br)cn2)c1-c1ccc2c(c1)OCO2 [WX013],IC50,CYP1A2,47 µM
same,IC50,CYP2C19,> 50 µM
same,IC50,CYP2D6,> 50 µM
same,IC50,CYP2C9,> 50 µM
same,IC50,human ETB receptor,66 µM
same,inhibitory effect on the bile salt transport pump (BSEP) (in words),[1],extremely weak
same,IC50,"[1]; substrate taurocholic acid, read-out: IC50, inhibitory effect on the bile salt transport pump (BSEP)",43.8 µM
same,inhibitory effects on five main isozymes of CYP (in words),[2],very weak
same,IC50,CYP3A4,18 µM
